# According to US5928910A, “Antifungal substances BE-49385 and process for their production” (Banyu Pharmaceutical Co., Ltd., priority 1995, dated 1999):
# How the values were obtained:
# Solubility = format: physicochemical
# [1] = tested on: Candida albicans IFO 1385; test: MIC by agar dilution method, Candida albicans IFO 1385; format: cell-based; settings: IFO1385, 72 h, 28° C., 3 days, read-out: MIC (minimum inhibitory concentration)
# Description: (§1) The minimum inhibitory concentrations of antifungal substances BE-49385 against various fungi were measured. The measurement of MIC was carried out by an agar dilution method using a culture medium prepared by mixing 900 ml of an agar solution containing 2.5 g of sterilized dipotassium hydrogenphosphate and 15 g of agar, with a solution obtained by dissolving 6.7 g of a yeast nitrogen base (manufactured by Difico Co.) and 10 g of glucose in 100 ml of purified water, followed by sterilization by means of sterilizing filter. BE-49385 was dissolved in dimethylsulfoxide to a concentration of 10 mg/ml and further diluted with dimethylsulfoxide to obtain a twice diluted series, and the dimethylsulfoxide concentration in the agar plate was adjusted to be 1%. On the prepared agar plate, 5 μl of the test strain solution adjusted to a concentration of 10^6 cells per 1 ml, was dropped, followed by culturing at 28° C. for 3 days, whereupon the growth was evaluated.
# (§2) The minimum inhibitory concentrations (MIC, unit: μ g/ml) of antifungal substance BE-49385A against various fungi, are shown in Table 1, and MICs of BE-49385 substances against Schizosaccharomyces pombe IAM4863 are shown in Table
# [2] = tested on: Schizosaccharomyces pombe IAM4863; test: MIC by agar dilution method, Schizosaccharomyces pombe IAM4863; format: cell-based; settings: 72 h, 28° C., 3 days, read-out: MIC (minimum inhibitory concentration)
# Description: as §1, §2
# [3] = tested on: Candida albicans IFO 1270; test: MIC by agar dilution method, Candida albicans IFO 1270; format: cell-based; settings: IFO1270, 72 h, 28° C., 3 days, read-out: MIC (minimum inhibitory concentration)
# Description: as §1, §2
# [4] = tested on: Kluyveromyces lactis IFO 1267; test: MIC by agar dilution method, Kluyveromyces lactis IFO 1267; format: cell-based; settings: IFO1267, 72 h, 28° C., 3 days, read-out: MIC (minimum inhibitory concentration)
# Description: as §1, §2
# [5] = tested on: Penicillium chrysogenum IFO 6223; test: MIC by agar dilution method, Penicillium chrysogenum IFO 6223; format: cell-based; settings: IFO6223, 72 h, 28° C., 3 days, read-out: MIC (minimum inhibitory concentration)
# Description: as §1, §2
# [6] = tested on: Saccharomyces cerevisiae IFO 1267; test: MIC by agar dilution method, Saccharomyces cerevisiae IFO 1267; format: cell-based; settings: IFO1267, 72 h, 28° C., 3 days, read-out: MIC (minimum inhibitory concentration)
# Description: as §1, §2
# [7] = tested on: Aspergillus niger IFO 31012; test: MIC by agar dilution method, Aspergillus niger IFO 31012; format: cell-based; settings: IFO31012, 72 h, 28° C., 3 days, read-out: MIC (minimum inhibitory concentration)
# Description: as §1, §2
Compound,Solubility in an organic solvent such as methanol or dimethylsulfoxide (Solubility),Solubility in water (Solubility),MIC [1] [µg/mL],MIC [2] [µg/mL],MIC [3] [µg/mL],MIC [4] [µg/mL],MIC [5] [µg/mL],MIC [6] [µg/mL],MIC [7] [µg/mL]
C=C1C2CC3C(C(C)C)C(OC(=O)CC(C)(O)CC(C)CC)CC3(C)CC2C(C)=CCC2C(C)OC(=O)C(OC(C)=O)C12O (stereo not drawn) [BE-49385A-Ac],Readily soluble,hardly soluble,,,,,,,
C=C1C2CC3C(C(C)C)C(OC(=O)CC(C)(O)CC(C)CC)CC3(C)CC2C(C)=CCC2C(C)OC(=O)C(O)C12O (stereo not drawn) [BE-49385A],Readily soluble,hardly soluble,3.13,< 0.1,0.78,0.78,0.39,3.13,0.78
C=C1C2CC3C(C(C)C)C(OC(=O)C(O)CC(C)CC(C)CC)CC3(C)CC2C(C)=CCC2C(C)OC(=O)C(O)C12O (stereo not drawn) [BE-49385B],Readily soluble,hardly soluble,,0.39,,,,,
C=C1C2CC3C(C(C)C)C(OC(=O)CC(C)CC(C)CC)CC3(C)CC2C(C)=CCC2C(C)OC(=O)C(O)C12O (stereo not drawn) [BE-49385C],Readily soluble,hardly soluble,,0.39,,,,,

# Other lines, results leading:
Solubility in an organic solvent such as methanol or dimethylsulfoxide (Solubility),Solubility in water (Solubility),MIC [1] [µg/mL],MIC [2] [µg/mL],MIC [3] [µg/mL],MIC [4] [µg/mL],MIC [5] [µg/mL],MIC [6] [µg/mL],MIC [7] [µg/mL],Compound
Readily soluble,hardly soluble,,0.78,,,,,,C=C1C2CC3C(C(C)C)C(OC(=O)C(O)c4ccccc4)CC3(C)CC2C(C)=CCC2C(C)OC(=O)C(O)C12O (stereo not drawn) [BE-49385D]
Readily soluble,hardly soluble,,0.2,,,,,,C=C1C2CC3C(C(C)C)C(OC(=O)C(O)C(C)(O)CC(C)CC)CC3(C)CC2C(C)=CCC2C(C)OC(=O)C(O)C12O (stereo not drawn) [BE-49385E]
Readily soluble,hardly soluble,,,,,,,,C=C1C2CC3C(C(C)C)C(O)CC3(C)CC2C(C)=CCC2C(C)OC(=O)C(O)C12O (stereo not drawn) [BE-49385F]
Readily soluble,hardly soluble,,0.39,,,,,,C=C1C2CC3C(C(C)C)C(OC(=O)C(O)C(O)CCC(C)CC)CC3(C)CC2C(C)=CCC2C(C)OC(=O)C(O)C12O (stereo not drawn) [BE-49385G]
Readily soluble,hardly soluble,,,,,,,,C=C1C2CC3C(C(C)C)C(OC(=O)C(O)C(O)C(C)CC(C)CC)CC3(C)CC2C(C)=CCC2C(C)OC(=O)C(O)C12O (stereo not drawn) [BE-49385H]
